Each structure is given as a SMILES string. Structures can show the parent of a compound that is named as a salt. Where two headings read alike, the source gives them in different places. Some results are limits rather than exact numbers.

The experiment addresses MAP4K-1 enzyme (Homo sapiens, UniProt Q92918). Nature of the experiment: FRET one step binding assay (tracer displacement). The settings on record: for inhibition at 1 µM / % Inhibition at 1 μM: 1 μM compound; for inhibition at 10 µM / % Inhibition at 10 μM: 10 μM compound. Here is the method:
This is a one step binding assay based on the binding and displacement of the labeled tracer, where compound addition is followed by addition of the anti-GST tagged europium (Eu) as the donor and Alexa Fluor-labeled tracer as the acceptor.
Test compounds were dissolved in dimethylsulfoxide (DMSO) to prepare 10.0 mM stock solutions and diluted to the desired concentration. The final concentration of DMSO in the reaction was 3% (v/v). The assay mixture was prepared by mixing 2 nM of the Eu-Anti-GST Antibody and 5 nM MAP4K-1 enzyme in the Kinase buffer containing 50 mM HEPES (pH 7.5), 10 mM MgCl2, 1 mM EGTA, 0.01% Brij-35 with or without the desired concentration of the compound. The reaction was incubated on ice for 15 min. […] After shaking for 5 min the reaction was further incubated for 1 hour at room temperature and this was kept at 4° C. and read on ARTEMIS reader as per the kit instructions (Thermo). […] The activity was calculated as percent of control reaction. IC50 values were calculated from dose response curve by nonlinear regression analysis using GraphPad Prism software.

MAP4K-1 enzyme, sequence (Q92918 whole entry): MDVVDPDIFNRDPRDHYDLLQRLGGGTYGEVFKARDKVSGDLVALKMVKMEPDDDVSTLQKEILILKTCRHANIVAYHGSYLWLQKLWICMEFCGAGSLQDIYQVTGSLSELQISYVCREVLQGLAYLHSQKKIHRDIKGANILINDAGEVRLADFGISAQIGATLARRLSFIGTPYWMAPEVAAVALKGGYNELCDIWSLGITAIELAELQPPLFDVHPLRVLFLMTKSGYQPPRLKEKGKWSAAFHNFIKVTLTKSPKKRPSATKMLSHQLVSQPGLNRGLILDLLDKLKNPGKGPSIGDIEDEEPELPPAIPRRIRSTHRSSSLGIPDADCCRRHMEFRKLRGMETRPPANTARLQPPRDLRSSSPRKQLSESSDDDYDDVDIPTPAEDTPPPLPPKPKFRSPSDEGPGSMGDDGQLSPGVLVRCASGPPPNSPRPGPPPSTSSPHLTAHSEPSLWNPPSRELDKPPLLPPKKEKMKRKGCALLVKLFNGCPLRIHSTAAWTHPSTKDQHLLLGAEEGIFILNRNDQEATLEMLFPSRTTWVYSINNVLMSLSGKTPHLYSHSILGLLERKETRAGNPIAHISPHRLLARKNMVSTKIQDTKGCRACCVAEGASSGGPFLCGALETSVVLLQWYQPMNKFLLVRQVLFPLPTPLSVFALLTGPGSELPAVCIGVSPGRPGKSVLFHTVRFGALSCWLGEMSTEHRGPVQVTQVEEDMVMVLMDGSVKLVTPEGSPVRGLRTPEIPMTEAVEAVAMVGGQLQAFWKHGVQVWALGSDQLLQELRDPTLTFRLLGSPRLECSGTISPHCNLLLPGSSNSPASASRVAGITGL

The term inhibition denotes the share of the control response that was lost under treatment. Low readings indicate a response near the control, high ones a response far below the control. What is called IC50 is the concentration needed to halve the response being measured. For the compound `COc1cc2c(cc1Nc1ncc(Cl)c(Nc3c(C)cc(OS(=O)(=O)F)cc3P(C)(C)=O)n1)CN(C)CC2` [Example 15, 4-((5-Chloro-2-((6-methoxy-2-methyl-1,2,3,4-tetrahydroisoquinolin-7-yl)amino)pyrimidin-4-yl)amino)-3-(dimethylphosphoryl)-5-methylphenyl sulfurofluoridate dihydrochloride], 1 µM produced 78.6% inhibition and the inhibition at 10 µM was 91.8%. This compound also yielded an IC50 (IC50 (nM)) above 500 nM.
`COc1cc2c(cc1Nc1ncc(Cl)c(Nc3ccc(OS(=O)(=O)F)cc3P(C)(C)=O)n1)C(C)N(C)CC2` (racemic) [Example 12, ±4-((5-chloro-2-((6-methoxy-1,2-dimethyl-1,2,3,4-tetrahydroisoquinolin-7-yl)amino)pyrimidin-4-yl)amino)-3-(dimethylphos-phoryl)phenylsulfurofluoridate dihydrochloride] yielded an inhibition at 1 µM of 87.5% and an inhibition at 10 µM of 85.9%. For the same compound, the IC50 (IC50 (nM)) was below 50 nM.
Broadly, the % Inhibition is how much of the control response was suppressed. Compound `COc1cc2c(cc1Nc1ncc(Cl)c(Nc3cc(OS(=O)(=O)F)ccc3P(C)(C)=O)n1)CN(C)C(C)C2` (single isomer, unassigned; isomer 2) [Example 36, 3-((5-Chloro-2-((6-methoxy-2,3-dimethyl-1,2,3,4-tetrahydroisoquinolin-7-yl)amino)pyrimidin-4-yl)amino)-4-(dimethylphosphoryl)phenyl sulfofluoridate dihydrochloride (Isomer 2)] came in with an IC50 below 50 nM. Moreover, the “% Inhibition at 1 μM” value (1 µM) is on record as 85.29%. For the same compound, under “10 µM”, the “% Inhibition at 10 μM” value came out at 83.76%.
On to `COc1cc2c(cc1Nc1ncc(Cl)c(Nc3ccc(S(C)(=N)=O)cc3P(C)(C)=O)n1)CN(C)CC2` (stereo not drawn) [Example 58, (2-((5-Chloro-2-((6-methoxy-2-methyl-1,2,3,4-tetrahydroisoquinolin-7-yl)amino)pyrimidin-4-yl)amino)-5-(S-methylsulfonimidoyl)phenyl)dimethylphosphine oxide], for which the inhibition at 1 µM is 96.6% and the inhibition at 10 µM came to 96.4%. For the same compound, the IC50 (read-out: IC50) is below 50 nM.
Compound `COCCOc1ccc(Nc2nc(Nc3cc4c(cc3OC)CCN(C)C4)ncc2Cl)c(P(C)(C)=O)c1` [Example 50, (2-((5-Chloro-2-((6-methoxy-2-methyl-1,2,3,4-tetrahydroisoquinolin-7-yl)amino)pyrimidin-4-yl)amino)-5-(2-methoxyethoxy)phenyl)dimethyl phosphine oxide] showed an inhibition at 1 µM of 92.7% and an inhibition at 10 µM of 94.8%. Further, the IC50 (read-out: IC50) is below 50 nM.
As to `COc1nc2c(cc1Nc1ncc(Cl)c(Nc3ccc(OS(=O)(=O)F)cc3P(C)(C)=O)n1)CN(C)CC2` [Example 22, 4-((5-Chloro-2-((2-methoxy-6-methyl-5,6,7,8-tetrahydro-1,6-naphthyridin-3-yl)amino)pyrimidin-4-yl)amino)-3-(dimethylphosphoryl)phenyl sulfofluoridate], the “% Inhibition at 1 μM” value turned out to be 75.12% and the “% Inhibition at 10 μM” value was determined as 82.60%. In addition, for the setting “read-out: IC50”, the IC50 is below 50 nM.
`COc1cc2c(cc1Nc1ncc(Cl)c(Oc3ccc(OS(=O)(=O)F)cc3P(C)(C)=O)n1)CN(C)CC2` [Example 60, 4-((5-Chloro-2-((6-methoxy-2-methyl-1,2,3,4-tetrahydroisoquinolin-7-yl)amino)pyrimidin-4-yl)oxy)-3-(dimethylphosphoryl)phenylsulfofluoridate dihydrochloride] gave an inhibition at 1 µM of 70.5% and an inhibition at 10 µM of 83.4%. Further, the half-inhibitory concentration (IC50) (IC50 (nM)) was 100 to 500 nM.
The compound `COc1cc2c(cc1Nc1ncc(Cl)c(Nc3ccc(OCC(F)F)cc3P(C)(C)=O)n1)CN(C)CC2` [Example 46, (2-((5-Chloro-2-((6-methoxy-2-methyl-1,2,3,4-tetrahydroisoquinolin-7-yl)amino)pyrimidin-4-yl)amino)-5-(2,2-difluoroethoxy)phenyl) dimethylphosphine oxide] gave an inhibition at 1 µM of 73.6% and an inhibition at 10 µM of 73.9%. Under “read-out: IC50”, the IC50 was below 50 nM.
The compound `COc1cc2c(cc1Nc1ncc(Cl)c(Nc3ccc(OS(=O)(=O)F)cc3P(C)(C)=O)n1)C(=O)N(C)CC2` [Example 17, 4-((5-Chloro-2-((6-methoxy-2-methyl-1-oxo-1,2,3,4-tetrahydroisoquinolin-7-yl)amino)pyrimidin-4-yl)amino)-3-(dimethylphosphoryl)phenyl sulfurofluoridatehydrochloride] returned an inhibition at 1 µM of 86.6% and an inhibition at 10 µM of 90.2%. For the same compound, the IC50 (IC50 (nM)) was below 50 nM.
The compound `COc1cc2c(cc1Nc1ncc(Cl)c(N=S(C)(=O)c3ccccc3P(C)(C)=O)n1)CN(C)CC2` (stereo not drawn) [Example 57, (2-(N-(5-Chloro-2-((6-methoxy-2-methyl-1,2,3,4-tetrahydroisoquinolin-7-yl)amino)pyrimidin-4-yl)-S-methylsulfonimidoyl)phenyl)dimethylphosphine oxide] came in with an inhibition at 1 µM of 83% and an inhibition at 10 µM of 79.3%. The IC50 (read-out: IC50) was 50 to 100 nM.
The compound `COc1cc2c(cc1Nc1ncc(Cl)c(Nc3ccc(OC(F)F)cc3P(C)(C)=O)n1)CN(C)CC2` [Example 45, (2-((5-Chloro-2-((6-methoxy-2-methyl-1,2,3,4-tetrahydroisoquinolin-7-yl)amino)pyrimidin-4-yl)amino)-5-(difluoromethoxy)phenyl)dimethylphosphineoxide] showed an inhibition at 1 µM of 74.8% and an inhibition at 10 µM of 79%. Moreover, the IC50 (read-out: IC50) was below 50 nM.
Compound `COc1cc2c(cc1Nc1ncc(Cl)c(Nc3ccc(OC4COC4)cc3P(C)(C)=O)n1)CN(C)CC2` [Example 51, (2-((5-Chloro-2-((6-methoxy-2-methyl-1,2,3,4-tetrahydroisoquinolin-7-yl)amino)pyrimidin-4-yl)amino)-5-(oxetan-3-yloxy)phenyl)dimethyl phosphine oxide] returned an inhibition at 1 µM of 93.1% and an inhibition at 10 µM of 94.3%. The IC50 (read-out: IC50) was below 50 nM.
The like results for `COc1cc2c(cc1Nc1ncc(Cl)c(Nc3ccc(C(=O)N(C)CCF)cc3P(C)(C)=O)n1)CN(C)CC2` [Example 52, 4-((5-Chloro-2-((6-methoxy-2-methyl-1,2,3,4-tetrahydroisoquinolin-7-yl)amino)pyrimidin-4-yl)amino)-3-(dimethylphosphoryl)-N-(2-fluoroethyl)-N-methyl benzamide] were, in that order, 88.2%, 85.5% and below 50 nM.
On to `COc1cc2c(cc1Nc1ncc(Cl)c(Nc3ccc(NC(=O)CCl)cc3P(C)(C)=O)n1)CN(C)CC2` [Example 56, 2-Chloro-N-(4-((5-chloro-2-((6-methoxy-2-methyl-1,2,3,4-tetrahydroisoquinolin-7-yl)amino)pyrimidin-4-yl)amino)-3-(dimethylphosphoryl)phenyl)acetamide hydrochloride], for which the inhibition at 1 µM turned out to be 88.7% and the inhibition at 10 µM was 88.2%. Further, the IC50 (read-out: IC50) was below 50 nM.
For `COc1cc2c(cc1Nc1ncc(Cl)c(Nc3ccc(OS(=O)(=O)F)cc3P(C)(C)=O)n1)CN(CC(F)F)CC2` [Example 8, 4-((5-Chloro-2-((2-(2,2-difluoroethyl)-6-methoxy-1,2,3,4-tetrahydroisoquinolin-7-yl)amino)pyrimidin-4-yl)amino)-3-(dimethylphosphoryl)phenyl sulfurofluoridate dihydrochloride], the inhibition at 1 µM amounted to 63.7% and the inhibition at 10 µM is 80%. The IC50 (IC50 (nM)) was below 50 nM.
The like results for `COc1cc2c(cc1Nc1ncc(Cl)c(Nc3ccc(OS(=O)(=O)F)cc3P(C)(C)=O)n1)CN(C)C(C)(C)C2` [Example 25, 4-((5-Chloro-2-((6-methoxy-2,3,3-trimethyl-1,2,3,4-tetrahydroisoquinolin-7-yl)amino)pyrimidin-4-yl)amino)-3-(dimethylphosphoryl)phenyl sulfofluoridate dihydrochloride] were, in that order, 85.9%, 90.7% and below 50 nM.
For the compound `COc1cc2c(cc1Nc1ncc(Cl)c(Nc3cnc(OS(=O)(=O)F)cc3P(C)(C)=O)n1)CN(C)CC2` [Example 37, 5-((5-Chloro-2-((6-methoxy-2-methyl-1,2,3,4-tetrahydroisoquinolin-7-yl)amino)pyrimidin-4-yl)amino)-4-(dimethylphosphoryl)pyridin-2-ylsulfofluoridate], the “% Inhibition at 1 μM” value came out at 84.45% and the “% Inhibition at 10 μM” value is on record as 84.73%. In addition, the IC50 (read-out: IC50) is below 50 nM.
`[2H]C([2H])([2H])N1CCc2cc(OC)c(Nc3ncc(Cl)c(Nc4ccc(OS(=O)(=O)F)cc4P(C)(C)=O)n3)cc2C1` [Example 4, 4-((5-Chloro-2-((6-methoxy-2-(methyl-d3)-1,2,3,4-tetrahydroisoquinolin-7-yl)amino)pyramidin-4-yl)amino)-3-(dimethylphosphoryl) phenylsulfurofluoridate dihydrochloride] gave an inhibition at 1 µM of 72.9% and an inhibition at 10 µM of 78.4%. Also, the IC50 (IC50 (nM)) was below 50 nM.
Consider `COc1cc2c(cc1Nc1ncc(Cl)c(Oc3ccccc3P(C)(C)=O)n1)CN(C)CC2` [Example 59, (2-((5-Chloro-2-((6-methoxy-2-methyl-1,2,3,4-tetrahydroisoquinolin-7-yl)amino)pyrimidin-4-yl)oxy)phenyl)dimethylphosphine oxide], for which the inhibition at 1 µM was 83.1% and the inhibition at 10 µM worked out at 87.3%. For the same compound, the IC50 (read-out: IC50) was below 50 nM.

Source of the values: patent US12577267B2, “Pyrimidine compounds for use as MAP4K1 inhibitors” (GLENMARK SPECIALITY S.A., priority 2021, dated 2026).
